Laboratory results as given in patent publication US7351747B2, “Skin treatment for relief of itch” (priority 2003, dated 2008).

System: skin itch
Test: Topical application of chlorhydrate composition to individuals with skin itch
Assay type: in vivo, human
Description: Three individuals, each complaining of skin itch of undetermined origin, were treated as follows. A composition was prepared at a concentration of aluminum chlorhydrate of about 10 to about 20 weight percent in water and further including a small quantity of a quaternary ammonium compound as a preservative.
An adult individual has applied 30% wt. of aluminum chlorhydrate in a topical cream to an area of the forearm experiencing itch.
An adult complains of itch on their legs.
An adult complaining of itch on their forearms and legs applies an ointment composition including 25% wt. of aluminum zirconium chlorhydrate to the affected areas.
An aqueous composition comprising aluminum chlorhydrate at a concentration of about 20 weight percent is applied to a synthetic fabric wipe and sealed in a tear-open pouch. Subsequently, an adult experiencing itch on their forearms tears open the pouch and wipes the area of the skin with the moist wipe; the wipe and pouch are discarded after use.

[1] = adult female, legs, 30% wt. in a lotion
[2] = adult male, forearms, aqueous composition about 20 weight percent on synthetic fabric wipe
[3] = adult male, forearms and legs, ointment composition including 25% wt.

| Substance | duration of relief of itch [1] | time to relief of itch [1] | relief of skin itch (adult individual, forearm, 30% wt. in a topical cream, no other active agent) | duration of relief from itching [2] | time to relief from itching [2] | time to relief from itching (three adults (one male, two female), skin itch of undetermined origin, about 10 to about 20 weight percent in water with quaternary ammonium preservative, pump spray) | duration of relief from itching (three adults, skin itch of undetermined origin, about 10 to about 20 weight percent in water, pump spray) | adverse side effects (three adults, about 10 to about 20 weight percent in water, pump spray to itching skin) | duration of relief of itch [3] | time to relief of itch [3] |
| --- | --- | --- | --- | --- | --- | --- | --- | --- | --- | --- |
| aluminum chlorhydrate | about 24 hours | within a few minutes | relieves the skin itch | about a day | within minutes | within a few minutes | about one day | No adverse side effects were reported | – | – |
| aluminum zirconium chlorhydrate | – | – | – | – | – | – | – | – | about 24 hours | within minutes |
